Results from PMC6719084, “Activating the Intrinsic Pathway of Apoptosis Using BIM BH3 Peptides Delivered by Peptide Amphiphiles with Endosomal Release” (Materials, 2019).

Target: T1, human cathepsin B (Homo sapiens, UniProt P07858)
T1 construct: Cathepsin B purified from human liver (Sigma-Aldrich, St. Louis, MO, USA); purchased Sigma-Aldrich; host or cells: human liver
Experiment: Fluorogenic cathepsin-cleavage assay (Z-RR-AMC)
Type: biochemical
Settings: recombinant cathepsin B, in vitro
Excerpt: The fluorogenic cathepsin-cleavage assay was done as previously described using the cathepsin B cleavage substrate Z-Arg-Arg-7-amido-4-methylcoumarin hydrochloride (Z-RR-AMC; Sigma-Aldrich, St. Louis, MO, USA) and human cathepsin B with or without the cathepsin inhibitor CA-074Me (EMD Millipore, Burlington, MA, USA).

CCCNC(=O)[C@H]1O[C@@H]1C(=O)N[C@H](C(=O)N1CCC[C@H]1C(=O)OC)[C@@H](C)CC [CA-074Me]
inhibition of cathepsin B cleavage of fluorogenic reporter substrate: blocked reporter substrate cleavage
